Measured values: patent US12391683B2, “Therapeutic compounds and methods” (Actio Biosciences, Inc., priority 2022, dated 2025)
pEC50, pIC50: −log10 of the molar value.

Biological target: T1, TRPV2 channels (Homo sapiens, UniProt Q9Y5S1)
T1 construct: expressed in transfected cells; host or cells: HEK293 (transient)
T1 sequence (Q9Y5S1 1-764): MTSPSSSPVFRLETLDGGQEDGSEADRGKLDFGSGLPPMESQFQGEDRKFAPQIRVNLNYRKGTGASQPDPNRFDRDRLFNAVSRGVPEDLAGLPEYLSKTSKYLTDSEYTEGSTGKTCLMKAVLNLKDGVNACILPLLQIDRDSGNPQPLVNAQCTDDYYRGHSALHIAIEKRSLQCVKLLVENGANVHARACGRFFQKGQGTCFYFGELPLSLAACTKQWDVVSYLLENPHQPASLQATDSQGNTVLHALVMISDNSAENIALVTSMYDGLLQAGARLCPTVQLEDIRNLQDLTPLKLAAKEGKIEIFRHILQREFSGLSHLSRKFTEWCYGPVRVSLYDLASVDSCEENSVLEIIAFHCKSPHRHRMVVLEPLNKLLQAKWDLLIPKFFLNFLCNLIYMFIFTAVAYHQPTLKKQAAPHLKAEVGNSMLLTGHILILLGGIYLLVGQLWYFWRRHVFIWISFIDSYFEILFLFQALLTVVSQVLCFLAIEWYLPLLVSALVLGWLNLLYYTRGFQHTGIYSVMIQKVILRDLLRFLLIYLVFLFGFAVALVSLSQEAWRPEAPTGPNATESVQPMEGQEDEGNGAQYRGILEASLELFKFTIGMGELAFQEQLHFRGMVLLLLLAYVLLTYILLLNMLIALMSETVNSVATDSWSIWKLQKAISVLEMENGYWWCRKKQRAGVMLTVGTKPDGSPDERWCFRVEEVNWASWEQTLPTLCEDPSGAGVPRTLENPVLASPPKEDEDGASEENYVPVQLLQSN
Assay: TRP Family FLIPR Assay, TRPV2
Assay type: cell-based
Details: HEK293 cells (transient)
Protocol: The compound of Example 5 was tested for selectivity against a panel of Human TRP family ion channels in a TRP Family FLIPR Assay as described below. • 1. TRPC3 channels (human TRPC3 variant 1 gene, expressed in HEK293 cells). • 2. TRPC4 channels (human TRPC4 gene, expressed in HEK293 cells). • 3. TRPC5 channels (human TRPC5 gene, expressed in HEK293 cells). • 4. TRPC6 channels (human TRPC6 gene, expressed in HEK293 cells). • 5. TRPM2 channels (human TRPM2 gene, transiently expressed in HEK293 cells). • 6. TRPM3 channels (human TRPM3 gene, transiently expressed in HEK293 cells). • 7. TRPM4 channels (human TRPM4 gene, expressed in CHO cells). • 8. […]
Data acquisition was performed via the FLIPR Control software supplied with the FLIPR System (MDS-AT) and data was analyzed using Microsoft Excel (Microsoft Corp., Redmond, WA) or GraphPad Prism. […]
[formula] where Base is the response at low concentrations of test article, Max is the maximum response at high concentrations, xhalf the EC50, or IC50, the concentration of test article producing either half-maximal activation or inhibition, and rate is the Hill coefficient. […] No assumptions about the fit parameters was made; the fit parameters were determined by the algorithm.
The effect of each test article was evaluated at eight (8) concentrations: 0.003, 0.01, 0.03, 0.1, 0.3, 1, 3 and 10 μM, n≤4 wells/concentration). […]

For CC(C)(O)c1cnc(N2C[C@@]3(CC[C@@H](F)[C@](C)(Cn4cnc5ccc(C#N)cc54)C3)OC2=O)cn1 (single isomer, unassigned) [Example 5], the pEC50 (agonist mode, vs EMAX of cannabidiol 300 μM, read-out: EC50 hTRPV2) was less than 5.00 and the pIC50 (antagonist mode, activated with capsaicin 100 μM, 0.003-10 μM, read-out: IC50 hTRPV2) was less than 5.00.
